This note sets out measurements from US9403832B2, “Pyrazolo[1,5-a]pyrimidine-based compounds, compositions comprising them, and methods of their use” (Lexicon Pharmaceuticals, Inc., priority 2012, dated 2016).

The target in assay [1] is T1, AAK1 (Homo sapiens, UniProt Q2M2I8).
T1 construct: NP_055726.2
As to the kind of experiment: P81 filter plate assay. Type of assay: biochemical. The conditions noted are these: full-length human AAK1, Mu2 substrate, 33P-ATP. In a few lines:
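Full-length human AAK1 (0.2 nM, 2×) was pre-incubated 10 min at RT with compounds (top concentration 96 μM in the dilution plate), then reacted 1 h at RT with full-length human Mu2 (0.2 μM, 2×), cold ATP (2 μM, 2×) and ³³P-ATP. Reactions were stopped with phosphoric acid and captured on P81 filters for scintillation counting.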

Assay [2] addresses T1, AAK1. As to the kind of experiment: HEK281 cell-based assay (CBA). The note with it: HEK293F cells transfected with full length human AAK1 and AP2M1; phospho-mu2 Western blot; 3 hours incubation. The procedure: HEK293F cells were cultured in media containing DMEM (Gibco, cat. #11965), 10% FBS (SAFC Biosciences, cat. #12103C), 1× GPS (glutamine, penicillin and streptomycin). On day one, cells were plated on a 10 cm dish so that they are ˜80% confluent at time of transfection. Roughly 12 million cells were in a 10 cm dish at time of transfection. On day two, each dish was transfected with 48 ug DNA and 144 ul Lipofectamine 2000 (Invitrogen, cat. #11668-019). The DNA was comprised of a mixture (per 10 cm dish) containing 3 ug AAK1/HA/pIRES (full length human, NCBI accession no. NP_055726.2), 45 μg Flag/AP2MI/pcDNA (full length human), and 1.5 ml OPTI-MEM. The Lipofectamine 2000 is made up of a mixture (per 10 cm dish) containing 144 μl Lipofectamine 2000 and 1.5 ml OPTI-MEM. Each mixture was transferred to individual 15 ml tubes and incubated at RT for 5 minutes, and then the two mixes were combined and incubated at RT for 20 minutes.
Growth media was then aspirated from each 10 cm plate and replaced with 10 ml of DMEM+10% FBS (no GPS). Finally, 3 ml DNA/Lipofectamine mix was added to each 10 cm dish and mix gently followed by incubate of plate overnight at 37° C. and 5% CO2.
On day three, compounds were diluted in 100% DMSO at 1000× final concentration, followed by 3-fold serial dilutions for a total of 5 concentrations tested. Four compounds were tested per 10 cm dish. One ul of each compound dilution was then pipetted into a deep-well, 96-well plate, followed by addition of 500 μl DMEM+0.5% FBS into each well for a 2× final concentration of each compound. Cells were resuspended in a 10 cm dish by simple pipetting (HEK293 cells come off the plate that easy at this point) and then transferred to a 50 ml conical tube and pelleted by centrifugation at 1000 rpm for 5 min. Cell pellets were then resuspended in 2.75 ml DMEM+0.5% FBS per 10 cm dish and 100 μl of cell suspension transferred into each well of 96-well TC plate. Finally, 100 μl of 2× compound diluted in DMEM+0.5% FBS was then added into wells containing cell suspension for a 1× final concentration. Plates were then incubated at 37° C. and 5% CO2 for 3 hours followed by transferring of cell suspensions from each well into 12-tube PCR strips. The PCR strips were spun in a tip rack at 1000 rpm for 5 minutes to pellet cells and media was then removed by pipetting without disturbing the cell pellet.
To prepare for Western Blot analysis, cell pellets were resuspend in 40 ul 1× LDS-PAGE sample buffer (Invitrogen, cat.# NP0008)+2× Halt phophatase and protease inhibitor cocktail (Thermo Scientific, cat. #1861284), followed by sonicating each with microtip sonicator set at 5 for 8-10 seconds. Five ul of 10× NuPage Sample Reducing Agent (with 50 mM DTT) was to each sample followed by heat denaturing at 70 C for 10 min on PCR machine. A total of 10 μl per sample was loaded into each lane of a 4-20% Tris-Glycine Criterion 26-well gel (Biorad, cat. #345-0034) for the phospho-mu2 blot and 10 μl per lane in a 4-12% Bis-Tris (+MES buffer) NuPAGE 26-well gel (Invitrogen, cat.# WG1403BX10) for the mu2 blot. For controls, 2 ng of phospho-mu2 or 20 ng mu2/Flag proteins were loaded in the last well of each gel. After SDS-PAGE, samples on each gel were transferred to PVDF membrane using an iBlot and membranes were blocked for one hour in TBST+5% milk, followed by wash 3× for 5-10 min with TBST. Criterion gels were probed with rabbit anti-phospho-mu2 (1:5000; a rabbit polyclonal antibody produced by New England Peptide and affinity purified at Lexicon) in TBST+5% BSA, whereas, NuPAGE gels were probed with mouse anti-Flag (1:500; Sigma, cat.# F1804) in TBST+5% milk, and these primary antibodies were incubated overnight at 4° C. on a rocker.
A general note: In western blotting, separated proteins are transferred to a membrane and probed.

T1 sequence (Q2M2I8 1-863 isoform Q2M2I8-2): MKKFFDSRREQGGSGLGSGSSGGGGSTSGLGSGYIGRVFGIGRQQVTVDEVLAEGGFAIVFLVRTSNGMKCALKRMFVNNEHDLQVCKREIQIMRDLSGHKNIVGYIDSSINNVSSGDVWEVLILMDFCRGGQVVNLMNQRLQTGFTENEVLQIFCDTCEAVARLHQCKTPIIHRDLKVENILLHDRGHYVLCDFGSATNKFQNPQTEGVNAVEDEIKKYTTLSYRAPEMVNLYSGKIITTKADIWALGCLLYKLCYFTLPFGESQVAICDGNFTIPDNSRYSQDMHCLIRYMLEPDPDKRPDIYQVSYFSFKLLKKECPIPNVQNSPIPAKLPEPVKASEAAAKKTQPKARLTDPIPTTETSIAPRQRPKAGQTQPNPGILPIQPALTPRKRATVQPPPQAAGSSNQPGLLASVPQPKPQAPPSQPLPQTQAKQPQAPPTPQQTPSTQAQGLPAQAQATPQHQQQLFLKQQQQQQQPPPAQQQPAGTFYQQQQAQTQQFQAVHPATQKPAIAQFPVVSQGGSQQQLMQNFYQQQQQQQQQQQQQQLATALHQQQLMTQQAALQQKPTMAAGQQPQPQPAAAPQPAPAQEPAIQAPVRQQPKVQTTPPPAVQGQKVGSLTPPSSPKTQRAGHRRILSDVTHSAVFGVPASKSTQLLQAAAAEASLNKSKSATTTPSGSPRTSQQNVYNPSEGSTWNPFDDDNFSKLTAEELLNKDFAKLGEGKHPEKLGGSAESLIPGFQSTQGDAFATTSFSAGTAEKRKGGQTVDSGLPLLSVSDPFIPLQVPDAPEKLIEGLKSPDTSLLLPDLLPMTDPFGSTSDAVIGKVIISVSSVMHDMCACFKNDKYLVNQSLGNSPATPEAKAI

With `COc1ncccc1-c1cnn2ccc(N3CCN(C(=O)OCC(F)(F)F)CC3)nc12` [2,2,2-trifluoroethyl 4-(3-(2-methoxypyridin-3-yl)pyrazolo[1,5-a]pyrimidin-5-yl)piperazine-1-carboxylate], the IC50 against AAK1 [1] and at AAK1 [2] was ≤ 10 nM each time.

For the compound `COCCOC(=O)N1CCN(c2ccn3ncc(-c4cc(F)ccc4OC)c3n2)CC1` [2-methoxyethyl 4-(3-(5-fluoro-2-methoxyphenyl)pyrazolo[1,5-a]pyrimidin-5-yl)piperazine-1-carboxylate], the IC50 on AAK1 [1] and against AAK1 [2] was ≤ 10 nM throughout.

For the compound `COc1ncc(C)cc1-c1cnn2ccc(N3CCN(C(=O)OC(C)C)CC3)nc12` [isopropyl 4-(3-(2-methoxy-5-methylpyridin-3-yl)pyrazolo[1,5-a]pyrimidin-5-yl)piperazine-1-carboxylate], the IC50 against AAK1 [1] and on AAK1 [2] was ≤ 10 nM in each case.

With `COc1ccc(F)cc1-c1cnn2ccc(N3CCN(C(=O)O[C@@H]4CCOC4)CC3)nc12` [(R)-tetrahydrofuran-3-yl 4-(3-(5-fluoro-2-methoxyphenyl)pyrazolo[1,5-a]pyrimidin-5-yl)piperazine-1-carboxylate], the IC50 against AAK1 [1] and on AAK1 [2] was ≤ 10 nM in each case.

As to `[2H]C([2H])([2H])Oc1ncccc1-c1cnn2ccc(N3CCN(C(=O)OCC)CC3)nc12` [ethyl 4-(3-(2-d3-methoxypyridin-3-yl)pyrazolo[1,5-a]pyrimidin-5-yl)piperazine-1-carboxylate], the IC50 is ≤ 10 nM against AAK1 [1] and ≤ 100 nM against AAK1 [2].

For the compound `CCCOC(=O)N1CCN(c2ccn3ncc(-c4cccnc4OC)c3n2)CC1` [propyl 4-(3-(2-methoxypyridin-3-yl)pyrazolo[1,5-a]pyrimidin-5-yl)piperazine-1-carboxylate], the results for the IC50 against AAK1 [1] and at AAK1 [2] were ≤ 10 nM and ≤ 100 nM, respectively.

With `COc1ncccc1-c1cnn2ccc(N3CCN(C(=O)O[C@H]4CCOC4)CC3)nc12` [(S)-tetrahydrofuran-3-yl 4-(3-(2-methoxypyridin-3-yl)pyrazolo[1,5-a]pyrimidin-5-yl)piperazine-1-carboxylate], the IC50 on AAK1 [1] and at AAK1 [2] was ≤ 10 nM each time.

For `CCOc1ncccc1-c1cnn2ccc(N3CCN(C(=O)OC(C)(C)C)CC3)nc12` [tert-butyl 4-(3-(2-ethoxypyridin-3-yl)pyrazolo[1,5-a]pyrimidin-5-yl)piperazine-1-carboxylate], the IC50 against AAK1 [1] and against AAK1 [2] was ≤ 10 nM each time.

On to `CCOC(=O)N1CCN(c2ccn3ncc(-c4cc(C)cnc4OC)c3n2)CC1` [ethyl 4-(3-(2-methoxy-5-methylpyridin-3-yl)pyrazolo[1,5-a]pyrimidin-5-yl)piperazine-1-carboxylate], for which the IC50 against AAK1 [1] is ≤ 10 nM; on AAK1 [2], ≤ 100 nM.

Take `COC[C@@H](C)OC(=O)N1CCN(c2ccn3ncc(-c4cccnc4OC)c3n2)CC1` [(R)-1-methoxypropan-2-yl 4-(3-(2-methoxypyridin-3-yl)pyrazolo[1,5-a]pyrimidin-5-yl)piperazine-1-carboxylate]: the values for the IC50 against AAK1 [1] and against AAK1 [2] were ≤ 10 nM and ≤ 1000 nM, respectively.

On to `CCOC(=O)N1CCC[C@H]1CNc1ccn2ncc(-c3ccccc3OC)c2n1` [(S)-ethyl 2-(((3-(2-methoxyphenyl)pyrazolo[1,5-a]pyrimidin-5-yl)amino)methyl)pyrrolidine-1-carboxylate], for which the IC50 on AAK1 [1] and on AAK1 [2] was ≤ 10 nM throughout.

Take `CCOC(=O)N1CCN(c2ccn3ncc(-c4ccc(C)nc4OC)c3n2)CC1` [ethyl 4-(3-(2-methoxy-6-methylpyridin-3-yl)pyrazolo[1,5-a]pyrimidin-5-yl)piperazine-1-carboxylate]: the IC50 at AAK1 [1] was ≤ 10 nM; at AAK1 [2], ≤ 100 nM.

For `COc1ccc(F)cc1-c1cnn2ccc(N3CCN(C(=O)OC(C)(C)C)CC3)nc12` [tert-butyl 4-(3-(5-fluoro-2-methoxyphenyl)pyrazolo[1,5-a]pyrimidin-5-yl)piperazine-1-carboxylate], the IC50 against AAK1 [1] and against AAK1 [2] was ≤ 10 nM throughout.

For the compound `Cc1ccc(-c2cnn3ccc(N4CCN(C(=O)[C@@H](N)C(C)C)CC4)nc23)c(F)c1` [(S)-2-amino-1-(4-(3-(2-fluoro-4-methylphenyl)pyrazolo[1,5-a]pyrimidin-5-yl)piperazin-1-yl)-3-methylbutan-1-one], the IC50 on AAK1 [1] was ≤ 10 nM; against AAK1 [2] it was ≤ 100 nM.

For the compound `COc1ncccc1-c1cnn2ccc(N3CCN(C(=O)OC(C)(C)C)CC3)nc12` [tert-butyl 4-(3-(2-methoxypyridin-3-yl)pyrazolo[1,5-a]pyrimidin-5-yl)piperazine-1-carboxylate], the IC50 on AAK1 [1] and against AAK1 [2] was ≤ 10 nM in each case.

`CN[C@H](C(=O)N1CCN(c2ccn3ncc(-c4cccnc4OC)c3n2)CC1)C(C)(C)C` [(S)-1-(4-(3-(2-methoxypyridin-3-yl)pyrazolo[1,5-a]pyrimidin-5-yl)piperazin-1-yl)-3,3-dimethyl-2-(methylamino)butan-1-one]: the IC50 was ≤ 10 nM at AAK1 [1] and ≤ 100 nM against AAK1 [2].

For the compound `COc1ncccc1-c1cnn2ccc(N3CCN(C(=O)OC4CCOCC4)CC3)nc12` [tetrahydro-2H-pyran-4-yl 4-(3-(2-methoxypyridin-3-yl)pyrazolo[1,5-a]pyrimidin-5-yl)piperazine-1-carboxylate], the IC50 is ≤ 10 nM against AAK1 [1] and ≤ 100 nM against AAK1 [2].

`COc1ncccc1-c1cnn2ccc(N3CCN(C(=O)O[C@@H]4CCOC4)CC3)nc12` [(R)-tetrahydrofuran-3-yl 4-(3-(2-methoxypyridin-3-yl)pyrazolo[1,5-a]pyrimidin-5-yl)piperazine-1-carboxylate]: the IC50 against AAK1 [1] and at AAK1 [2] was ≤ 10 nM in each case.

In the case of `COc1ncccc1-c1cnn2ccc(N3CC[C@H](N(C)C(=O)[C@@H](N)CC(C)C)C3)nc12` [(S)-2-amino-N-((S)-1-(3-(2-methoxypyridin-3-yl)pyrazolo[1,5-a]pyrimidin-5-yl)pyrrolidin-3-yl)-N,4-dimethylpentanamide], the IC50 on AAK1 [1] and against AAK1 [2] was ≤ 10 nM throughout.

For `CC(C)[C@H](N)C(=O)N1CCN(c2ccn3ncc(-c4ccccc4)c3n2)CC1` [(S)-2-amino-3-methyl-1-(4-(3-phenylpyrazolo[1,5-a]pyrimidin-5-yl)piperazin-1-yl)butan-1-one], the IC50 at AAK1 [1] and against AAK1 [2] was ≤ 10 nM throughout.

In the case of `COc1cccc(-c2cnn3ccc(NC[C@@H]4CCCN4C(=O)OC(C)(C)C)nc23)c1` [(S)-tert-butyl 2-(((3-(3-methoxyphenyl)pyrazolo[1,5-a]pyrimidin-5-yl)amino)methyl)pyrrolidine-1-carboxylate], the IC50 against AAK1 [1] and on AAK1 [2] was ≤ 10 nM each time.

For `[2H]C1([2H])N(C(=O)OCCOC)C([2H])([2H])C([2H])([2H])N(c2ccn3ncc(-c4cccnc4OC)c3n2)C1([2H])[2H]` [2-methoxyethyl 4-(3-(2-methoxypyridin-3-yl)pyrazolo[1,5-a]pyrimidin-5-yl)-d8-piperazine-1-carboxylate], the IC50 was ≤ 10 nM at AAK1 [1] and ≤ 100 nM against AAK1 [2].

The IC50 is the concentration that gives 50% inhibition. The low end stands for higher potency, the high end for lower potency.
